Legend:
Experiment in all cases: fitted bottom plateau of viability curve, % of DMSO control; higher = less maximal inhibition; extreme values may be limits of the assay
[1] = test system: NCI-H358
How it was run: (§1)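 Compounds were dispensed acoustically as dose series, one compound per well, 24 h after seeding cells in 60 µl per well of 384-well plates (800 cells/well for NCI-H2122, 500 cells/well for SW837 and NCI-H358). Plates were incubated 144 h for SW837 and 72 h for the other two lines, then shaken 15 min and read for CellTiter-Glo luminescence on an EnVision reader. Signals were converted to percent of DMSO controls. The relative IC50, averaged over replicates, and the lower plateau come from fitting a four-parameter nonlinear model.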

[2] = test system: SW837
How it was run: as §1

[3] = test system: NCI-H2122
How it was run: as §1

Q: What does the source list for CC[C@H](Nc1ncnc2[nH]cnc12)c1nc2cccc(F)c2c(=O)n1-c1ccccc1 [Cal-101] (top concentration tested 10000 nM)?
A: fitted bottom plateau of viability curve [1]: 84.2%; fitted bottom plateau of viability curve [2]: 85.3%; fitted bottom plateau of viability curve [3]: 75.5%

Q: With O=P1(N(CCCl)CCCl)NCCCO1 (stereo unspecified) [Cyclophosphamide] (top concentration tested 10000 nM) as the molecule, how does the “fitted bottom plateau of viability curve” value [1] read?
A: Its value is 99.7%.

Q: What about the “fitted bottom plateau of viability curve” value [2] of the same molecule?
A: The value was 87.3%.

Q: What about the “fitted bottom plateau of viability curve” value [3] of the same molecule?
A: The value was 88.9%.

Q: For C[C@H](Nc1ncnc2nc[nH]c12)c1cc2cccc(Cl)c2c(=O)n1-c1ccccc1 [Duvelisib] (top concentration tested 9999.9 nM), which “fitted bottom plateau of viability curve” value [1] is on record?
A: Its value is 61%.

Q: What about the “fitted bottom plateau of viability curve” value [2] of the same molecule?
A: Its value is 94.1%.

Q: And the “fitted bottom plateau of viability curve” value [3]?
A: The value was 56.5%.

Q: CCCc1cc(C)[nH]c(=O)c1CNC(=O)c1cc(-c2ccnc(N3CCN(C)CC3)c2)cc2c1cnn2C(C)C [GSK343] (top concentration tested 4999.9 nM) was tested. Which “fitted bottom plateau of viability curve” value [1] did it give?
A: Its value is 92.7%.

Q: What about the “fitted bottom plateau of viability curve” value [2] of the same molecule?
A: Its value is 94.5%.

Q: And the “fitted bottom plateau of viability curve” value [3]?
A: Its value is 83.2%.

Q: Which “fitted bottom plateau of viability curve” value [1] does the source give for C[C@H](NC(=O)c1c(N)nn2cccnc12)c1cc2cccc(C#Cc3cnn(C)c3)c2c(=O)n1-c1ccccc1 [IPI-549] (top concentration tested 1000 nM) here?
A: The value was 91%.

Q: And the “fitted bottom plateau of viability curve” value [2]?
A: Its value is 91.6%.

Q: And the “fitted bottom plateau of viability curve” value [3]?
A: The value was 86.2%.

Q: What does the source list for CS(=O)(=O)CCNCc1ccc(-c2ccc3ncnc(Nc4ccc(OCc5cccc(F)c5)c(Cl)c4)c3c2)o1 [Lapatinib] (top concentration tested 1000 nM)?
A: fitted bottom plateau of viability curve [1]: 58.4%; fitted bottom plateau of viability curve [2]: 92.9%; fitted bottom plateau of viability curve [3]: 77.5%

Q: How did the “fitted bottom plateau of viability curve” value [1] turn out when O=C(c1cc(Cc2n[nH]c(=O)c3ccccc23)ccc1F)N1CCN(C(=O)C2CC2)CC1 [Olaparib] (top concentration tested 50000 nM) was run?
A: Its value is 56.6%.

Q: And the “fitted bottom plateau of viability curve” value [2]?
A: The value was 88.2%.

Q: And the “fitted bottom plateau of viability curve” value [3]?
A: Its value is 63.9%.

Q: Which results are given for O=C(/C=C/N1C[C@H]2C[C@@H]1CN2c1ccccn1)c1ccccc1O [PFI-3] (top concentration tested 50000 nM)?
A: fitted bottom plateau of viability curve [1]: 93.4%; fitted bottom plateau of viability curve [2]: 98.3%; fitted bottom plateau of viability curve [3]: 94%

Q: O=C(c1c(F)ccc(NS(=O)(=O)N2CC[C@@H](F)C2)c1F)c1c[nH]c2ncc(-c3cnc(C4CC4)nc3)cc12 [PLX8394] (top concentration tested 5000 nM) was tested. Which “fitted bottom plateau of viability curve” value [1] did it give?
A: The value was 57.8%.

Q: And the “fitted bottom plateau of viability curve” value [2]?
A: The value was 96.3%.

Q: And the “fitted bottom plateau of viability curve” value [3]?
A: The value was 78.7%.

Q: Which “fitted bottom plateau of viability curve” value [1] does the source give for CC1(N)CCN(c2cnc(-c3cccc(Cl)c3Cl)c(N)n2)CC1 [SHP099] (top concentration tested 1000.1 nM) here?
A: Its value is 88.2%.

Q: And the “fitted bottom plateau of viability curve” value [2]?
A: Its value is 97%.

Q: What about the “fitted bottom plateau of viability curve” value [3] of the same molecule?
A: Its value is 84.1%.

Q: With CC/C(=C(\c1ccccc1)c1ccc(OCCN(C)C)cc1)c1ccccc1 [Tamoxifen] (top concentration tested 10000 nM) as the molecule, how does the “fitted bottom plateau of viability curve” value [1] read?
A: Its value is 67.9%.

Q: What about the “fitted bottom plateau of viability curve” value [2] of the same molecule?
A: Its value is 88.6%.

Q: What about the “fitted bottom plateau of viability curve” value [3] of the same molecule?
A: Its value is 66%.

Q: For Oc1nc(-c2ccc(C(F)(F)F)cc2)nc2c1CSCC2 [XAV939] (top concentration tested 50000 nM), which “fitted bottom plateau of viability curve” value [1] is on record?
A: The value was 88.7%.

Q: What about the “fitted bottom plateau of viability curve” value [2] of the same molecule?
A: Its value is 89.3%.

Q: What about the “fitted bottom plateau of viability curve” value [3] of the same molecule?
A: The value was 81.5%.
